Molecules are shown by their SMILES. Read-outs that look alike come from different tables or passages of the source. Where only a bound is given, the exact number is not on record here.

For one data set, the target named is DRD1 (Homo sapiens, UniProt P21728). Kind of data set: cAMP DRD1 Agonist. The settings on record: for Emax: read-out: Max response.
For the next data set, the target named is DRD2S (Homo sapiens, UniProt P14416). Kind of data set: cAMP DRD2S Agonist. As to conditions: for Emax: read-out: Max response.
Sequence of DRD2S (P14416 1-414 isoform P14416-2): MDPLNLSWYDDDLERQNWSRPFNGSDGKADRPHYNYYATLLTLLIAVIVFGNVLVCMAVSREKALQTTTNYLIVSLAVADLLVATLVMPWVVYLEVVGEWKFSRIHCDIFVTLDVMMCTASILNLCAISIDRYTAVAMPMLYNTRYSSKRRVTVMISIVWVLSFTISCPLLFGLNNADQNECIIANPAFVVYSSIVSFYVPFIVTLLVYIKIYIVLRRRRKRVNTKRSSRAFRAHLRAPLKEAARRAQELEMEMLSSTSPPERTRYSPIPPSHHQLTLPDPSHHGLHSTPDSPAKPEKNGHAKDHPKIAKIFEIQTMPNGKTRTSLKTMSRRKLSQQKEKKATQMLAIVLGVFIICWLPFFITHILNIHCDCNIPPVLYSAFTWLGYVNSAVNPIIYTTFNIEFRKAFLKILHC
The next data set concerns the target CNR2 (Homo sapiens, UniProt P34972). Kind of data set: cAMP CNR2 Antagonist. The settings on record: for Emax: read-out: Max response.
The next data set deals with T1, CCKAR (Homo sapiens, UniProt P32238).
T1 sequence (P32238 1-428): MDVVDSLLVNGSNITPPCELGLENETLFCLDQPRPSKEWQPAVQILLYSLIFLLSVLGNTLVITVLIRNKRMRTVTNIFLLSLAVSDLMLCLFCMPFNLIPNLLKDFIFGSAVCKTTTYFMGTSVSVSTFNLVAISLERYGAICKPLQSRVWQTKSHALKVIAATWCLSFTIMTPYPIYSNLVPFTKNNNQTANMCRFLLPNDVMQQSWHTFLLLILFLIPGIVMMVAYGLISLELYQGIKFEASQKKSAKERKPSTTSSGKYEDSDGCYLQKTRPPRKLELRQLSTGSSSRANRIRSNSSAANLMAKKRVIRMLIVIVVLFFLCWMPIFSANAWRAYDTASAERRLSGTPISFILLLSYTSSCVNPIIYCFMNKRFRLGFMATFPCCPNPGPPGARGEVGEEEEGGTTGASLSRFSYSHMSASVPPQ
As to the kind of experiment: Calcium Flux CCKAR Antagonist. In kind it is cell-based. As to conditions: for IC50: read-out: RC50, result type IC50; for Emax: read-out: Max response. The procedure:
(≤0.2% DMSO concentration). Assays were performed in 1× dye loading buffer consisting of 1× Dye (DiscoverX, Calcium No Wash^PLUS kit, Catalog No. 90-0091), 1× Additive A and 2.5 mM Probenecid in HBSS/20 mM HEPES. Probenecid was prepared fresh. Prior to testing, media was aspirated from cells and replaced with 25 μL dye loading buffer. Cells were incubated for 45 min at 37° C. and then 20 min at RT. For agonist determination, 25 μL of 2× compound in HBSS/20 mM HEPES was added using a FLIPR Tetra (MDS). […] 25 μL of 2× sample was added and cells were incubated for 30 min at RT in the dark to equilibrate plate temperature. After incubation, antagonist determination was initiated by addition of 25 μL of 1× compound with 3×EC80 agonist using FLIPR. For both agonist and antagonist formats, activity was measure on a FLIPR Tetra (MDS). Calcium mobilization was monitored for 2 min with a 5 sec baseline read.
FLIPR read—Area under the curve, was calculated for the entire 2 min read.

In another data set the target is T2, AChE (Homo sapiens, UniProt P22303).
T2 construct: purchased R&D Systems
T2 sequence (P22303 32-614): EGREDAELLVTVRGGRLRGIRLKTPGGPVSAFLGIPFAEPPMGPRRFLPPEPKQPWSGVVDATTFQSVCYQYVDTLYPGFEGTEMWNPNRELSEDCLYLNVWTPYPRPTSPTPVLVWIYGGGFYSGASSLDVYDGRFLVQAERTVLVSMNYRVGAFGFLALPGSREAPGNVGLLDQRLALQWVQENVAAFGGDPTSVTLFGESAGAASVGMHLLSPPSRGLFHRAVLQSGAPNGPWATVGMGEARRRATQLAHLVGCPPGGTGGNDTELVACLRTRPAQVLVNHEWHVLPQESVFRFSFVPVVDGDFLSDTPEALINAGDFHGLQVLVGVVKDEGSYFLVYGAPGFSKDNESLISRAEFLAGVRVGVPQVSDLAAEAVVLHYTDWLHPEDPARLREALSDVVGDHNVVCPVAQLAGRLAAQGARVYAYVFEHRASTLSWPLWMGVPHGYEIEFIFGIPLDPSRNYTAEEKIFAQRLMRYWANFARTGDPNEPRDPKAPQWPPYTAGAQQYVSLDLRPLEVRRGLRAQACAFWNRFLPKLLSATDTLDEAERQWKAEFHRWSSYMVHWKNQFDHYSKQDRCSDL
Kind of data set: Enzymatic AChE Inhibitor. In kind it is biochemical. The settings on record: for IC50: read-out: RC50, result type IC50; for Emax: read-out: Max response. The protocol:
Enzyme preparations were sourced from various vendors-AChE (R&D Systems), COX1 and COX2 (BPS Bioscience), MAOA (Sigma), PDE3A and PDE4D2 (Signal Chem). AChE: enzyme and test compound were pre-incubated for 15 min at RT before substrate addition. Acetylthiocholine and DTNB were added and incubated at RT for 30 min. Signal was detected by measuring absorbance at 405 nm. COX1 and COX2: enzyme stocks were diluted in assay buffer (40 mM Tris-HCl, 1×PBS, 0.5 mM Phenol, 0.01% Tween 20 and 10 nM Hematin) and allowed to equilibrate with compounds at RT for 30 min (binding incubation). Arachidonic acid (1.7 μM) and Ampliflu Red (2.5 μM) were prepared and dispended into a reaction plate. Plates were read immediately on a fluorimeter with the emission detection at 590 nm and excitation wavelength 544 nm. MAOA: enzyme and test compound were pre-incubated for 15 min at 37° C. before substrate addition. The reaction was initiated by addition of kynuramine and incubated at 37° C. for 30 min. The reaction was terminated by addition of NaOH. The amount of 4-hydroquinoline formed was determined through spectrofluorometric readout with the emission detection at 380 nm and excitation wavelength 310 nm. PDE3A and PDE4D2: enzyme and test compound were pre-incubated for 15 min at RT before substrate addition. cAMP substrate (at a concentration equal to EC80) was added and incubated at RT for 30 min. Enzyme reaction was terminated by addition of 9 mM IBMX. Signal was detected using the HitHunter® cAMP detection kit. Microplates were transferred to a PerkinElmer Envision™ instrument and read out as described for each assay. […] For enzyme activity assays, percentage inhibition was calculated using the following equation: […]

Data set [1] in a line: Pharmacokinetic analysis in naïve mice. The settings on record: single i.p. 300 mg/kg, male NMRI mice.
Experimental: After the treatment period, blood samples were drawn from the tail veins, collected in Greiner MiniCollect K2EDTA tubes, and centrifuged twice for 5 min at 15,000 g to obtain plasma samples. Three volumes of acetonitrile were added to one volume of plasma to precipitate out the proteins. The samples were vortexed for 20 s and placed on ice. Immediately after, they were centrifuged at 5,000 g for 10 min and again at 10,000 g for 2 min. The resulting supernatants were transferred to Eppendorf tubes and centrifuged for 2 min at 10,000 g. Finally, the supernatants were collected for analysis by LC-MS/MS to determine the targeted compound concentration. Percentage recovery was determined as follows: known concentrations of the compound were spiked into the blank plasma and acetonitrile was added (3:1 ratio) to precipitate out the proteins. Samples were vortexed for 20 s and placed on ice. The resulting supernatants were isolated via centrifugation as described above. The targeted compounds were identified using LC-MS/MS to detect their characteristic ions. Plasma concentrations at each point were plotted as a function of time.
Brain samples were collected at the same time points as described for blood samples. Male NMRI mice were overdosed with dolethal via i.p. administration. Mice were perfused with 0.9% saline and brains were collected in Eppendorf tubes. Brains were weighed, whereafter 400 μL of acetonitrile was added to the samples. […] Homogenized samples were centrifuged at 5,000 g for 10 min and again at 10,000 g for 2 min. The resulting supernatants were transferred to Eppendorf tubes and centrifuged for 2 min at 10,000 g. Finally, the supernatants were collected for analysis by LC-MS/MS to determine the targeted compound concentration in the brain tissue.
The compound concentrations in mouse plasma and brain were determined by LC-MS/MS.
Another data set has as its target T3, HTR3A (Homo sapiens, UniProt P46098).
T3 sequence (P46098 24-478): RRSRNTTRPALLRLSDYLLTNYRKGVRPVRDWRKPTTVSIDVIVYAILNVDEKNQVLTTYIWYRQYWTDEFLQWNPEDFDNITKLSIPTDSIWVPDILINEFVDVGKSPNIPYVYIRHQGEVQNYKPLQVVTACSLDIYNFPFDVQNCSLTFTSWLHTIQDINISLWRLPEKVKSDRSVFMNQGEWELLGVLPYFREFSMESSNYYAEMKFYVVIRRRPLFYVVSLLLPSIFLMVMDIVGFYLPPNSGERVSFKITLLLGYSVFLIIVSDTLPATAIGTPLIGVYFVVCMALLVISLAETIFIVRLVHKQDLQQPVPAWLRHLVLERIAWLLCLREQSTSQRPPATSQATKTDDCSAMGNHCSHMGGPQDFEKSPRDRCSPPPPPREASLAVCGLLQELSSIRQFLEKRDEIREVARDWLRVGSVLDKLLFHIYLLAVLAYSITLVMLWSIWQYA
As to the kind of experiment: Ion Channel HTR3A Blocker. The class given is cell-based. As to conditions: for Emax: Ion Channel HTR3A Blocker, read-out: Max response.

For the next data set, the target named is CNR1 (Homo sapiens, UniProt P21554). As to the kind of experiment: cAMP CNR1 Antagonist. The settings on record: for Emax: read-out: Max response.
Sequence of CNR1 (P21554 whole entry): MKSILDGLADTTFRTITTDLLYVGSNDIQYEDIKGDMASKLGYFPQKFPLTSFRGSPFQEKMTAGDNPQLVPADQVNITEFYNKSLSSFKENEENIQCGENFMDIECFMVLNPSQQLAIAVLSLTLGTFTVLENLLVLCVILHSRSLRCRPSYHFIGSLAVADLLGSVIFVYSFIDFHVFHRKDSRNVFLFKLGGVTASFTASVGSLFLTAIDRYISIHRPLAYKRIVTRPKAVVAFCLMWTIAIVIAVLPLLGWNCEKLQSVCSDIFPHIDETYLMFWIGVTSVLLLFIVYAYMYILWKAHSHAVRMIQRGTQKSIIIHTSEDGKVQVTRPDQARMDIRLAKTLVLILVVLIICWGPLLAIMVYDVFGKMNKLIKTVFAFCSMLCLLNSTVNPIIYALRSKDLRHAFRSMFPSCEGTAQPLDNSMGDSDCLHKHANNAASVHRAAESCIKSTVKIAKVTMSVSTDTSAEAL

Sequence of CNR2 (P34972 whole entry): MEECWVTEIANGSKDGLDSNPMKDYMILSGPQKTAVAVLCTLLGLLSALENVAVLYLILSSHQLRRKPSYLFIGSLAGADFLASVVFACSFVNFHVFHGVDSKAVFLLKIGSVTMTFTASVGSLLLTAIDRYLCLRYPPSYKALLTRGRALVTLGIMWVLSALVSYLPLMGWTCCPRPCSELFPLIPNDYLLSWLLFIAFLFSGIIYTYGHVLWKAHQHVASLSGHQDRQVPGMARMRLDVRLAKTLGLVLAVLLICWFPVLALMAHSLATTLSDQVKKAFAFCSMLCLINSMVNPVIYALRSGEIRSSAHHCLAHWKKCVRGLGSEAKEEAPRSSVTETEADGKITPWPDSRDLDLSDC
Sequence of DRD1 (P21728 whole entry): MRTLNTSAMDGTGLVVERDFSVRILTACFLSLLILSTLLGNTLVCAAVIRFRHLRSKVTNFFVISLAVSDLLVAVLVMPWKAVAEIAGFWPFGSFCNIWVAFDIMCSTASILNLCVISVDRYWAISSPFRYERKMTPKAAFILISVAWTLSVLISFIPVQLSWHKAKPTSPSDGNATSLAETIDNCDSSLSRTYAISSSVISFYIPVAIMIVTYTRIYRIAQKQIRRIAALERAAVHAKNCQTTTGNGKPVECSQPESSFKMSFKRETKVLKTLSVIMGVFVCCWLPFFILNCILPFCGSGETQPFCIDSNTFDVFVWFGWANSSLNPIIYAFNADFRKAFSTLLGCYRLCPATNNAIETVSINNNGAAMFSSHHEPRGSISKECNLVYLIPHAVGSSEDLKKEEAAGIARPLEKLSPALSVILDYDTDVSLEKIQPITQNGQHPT
Experimental for CNR1: (§1) In vitro pharmacological profiling of compounds was done against 78 functional assays for 47 common off-targets (30) by Eurofins DiscoverX Corporation (Fremont, CA, USA) using their SAFETYscan E/IC50 ELECT service (Cat Ref 87-1003DR, Safety47 Panel Dose Response). […] Compounds were tested in a range of 10 concentrations, following a 3-fold serial dilution, starting from 10 μM.
(§2) cAMP Hunter cell lines were expanded from freezer stocks. Prior to testing, cells were seeded in a total volume of 20 μL into white walled 384-well microplates and incubated at 37° C. cAMP modulation was determined using the DiscoverX HitHunter cAMP XS+ assay. For Gs agonist determination, cells were incubated with sample to induce response. For Gi agonist determination, cells were incubated with sample in the presence of EC80 forskolin to induce response. For both conditions, media was aspirated from cells and replaced with 15 μL 2:1 HBSS/10 mM HEPES:cAMP XS+ Ab reagent. Intermediate dilution of sample stocks was performed to generate 4× sample in assay buffer (containing 4×EC80 forskolin in the case of antagonist determination). 5 μL of 4× sample was added to cells and incubated at 37° C. or room temperature (RT) for 30 or 60 min. Final assay vehicle concentration was 1%. For antagonist determination, cells were pre-incubated with sample followed by agonist challenge at the EC80 concentration. Media was aspirated from cells and replaced with 10 μL 1:1 HBSS/HEPES:cAMP XS+ Ab reagent. 5 μL of 4× compound was added to the cells and incubated at 37° C. or RT for 30 min. 5 μL of 4×EC80 agonist was added to the cells and incubated at 37° C. or RT for 30 or 60 min. For Gi coupled GPCRs, EC80 forskolin was included. […] Microplates were read following signal generation with a PerkinElmer Envision™ instrument for chemiluminescent signal detection. Compound activity was analyzed using CBIS data analysis suite (ChemInnovation, CA). For Gs agonist mode assays, percentage activity was calculated using the following equation:
Experimental for CNR2: as §1, §2
Experimental for DRD1: In vitro pharmacological profiling of compounds was done against 78 functional assays for 47 common off-targets (30) by Eurofins DiscoverX Corporation (Fremont, CA, USA) using their SAFETYscan E/IC50 ELECT service (Cat Ref 87-1003DR, Safety47 Panel Dose Response). […] Compounds were tested in a range of 10 concentrations, following a 3-fold serial dilution, starting from 10 μM. The assays were performed utilizing the PathHunter enzyme fragment complementation (EFC) technology, FLIPR®-based cellular screening assays, and KINOMEscan kinase binding assays.
(§3) cAMP Hunter cell lines were expanded from freezer stocks. Prior to testing, cells were seeded in a total volume of 20 μL into white walled 384-well microplates and incubated at 37° C. cAMP modulation was determined using the DiscoverX HitHunter cAMP XS+ assay. For Gs agonist determination, cells were incubated with sample to induce response. For Gi agonist determination, cells were incubated with sample in the presence of EC80 forskolin to induce response. For both conditions, media was aspirated from cells and replaced with 15 μL 2:1 HBSS/10 mM HEPES:cAMP XS+ Ab reagent. Intermediate dilution of sample stocks was performed to generate 4× sample in assay buffer (containing 4×EC80 forskolin in the case of antagonist determination). 5 μL of 4× sample was added to cells and incubated at 37° C. or room temperature (RT) for 30 or 60 min. Final assay vehicle concentration was 1%. For antagonist determination, cells were pre-incubated with sample followed by agonist challenge at the EC80 concentration. Media was aspirated from cells and replaced with 10 μL 1:1 HBSS/HEPES:cAMP XS+ Ab reagent. 5 μL of 4× compound was added to the cells and incubated at 37° C. or RT for 30 min. 5 μL of 4×EC80 agonist was added to the cells and incubated at 37° C. or RT for 30 or 60 min. For Gi coupled GPCRs, EC80 forskolin was included. […] Microplates were read following signal generation with a PerkinElmer Envision™ instrument for chemiluminescent signal detection. Compound activity was analyzed using CBIS data analysis suite (ChemInnovation, CA).
Experimental for DRD2S: as §1, §3

Regarding `CC(C)(C)c1ccc(C#CC(O)c2ccccc2)cc1` (racemic) [Compound 3.3, rac-3-(4-(tert-butyl)phenyl)-1-phenylprop-2-yn-1-ol], the EC50 on DRD1 and on DRD2S was above 10 µM in each case. In addition, the Emax is 1.2% on DRD1; 0% at DRD2S; 38.3% at CNR2; 0% at CCKAR; 3.8% on AChE; 50.1% on HTR3A. In addition, at CNR1, the Emax is 17.5%. Besides, the 50% inhibitory concentration (IC50) against CNR2, on CCKAR (Calcium Flux CCKAR Antagonist), at AChE (Enzymatic AChE Inhibitor), against HTR3A and at CNR1 was above 10 µM throughout. Moreover, the “time at which brain concentration peaked” value in data set [1] stood at 30 min. Moreover, the “time at which plasma concentration peaked” value in data set [1] turned out to be 30 min.
Consider `Clc1cccc(C#Cc2n[nH]c3ncccc23)c1` [Compound 10.1, 3-((3-chlorophenyl)ethynyl)-1H-pyrazolo[3,4-b]pyridine], for which the EC50 on DRD1 and at DRD2S was above 10 µM in each case. The Emax at DRD1 amounted to 1.3%; on DRD2S it was 15%; at CNR2, 0%; at CCKAR (Calcium Flux CCKAR Antagonist), 0%; on AChE (Enzymatic AChE Inhibitor) it was 1.3%; at HTR3A it was 19.7%. Also, the Emax on CNR1 amounted to 0%. Moreover, the IC50 at CNR2, at CCKAR (Calcium Flux CCKAR Antagonist), at AChE (Enzymatic AChE Inhibitor), at HTR3A and on CNR1 was above 10 µM throughout. Moreover, the “time at which brain concentration peaked” value in data set [1] came to 150 min. Moreover, the “time at which plasma concentration peaked” value in data set [1] was in the range of 60 to 240 min.

For the origin of these results see patent US20250186408A1, “TREATMENT OF PHARMACORESISTANT EPILEPSY” (Katholieke Universiteit Leuven, priority 2021, published 2025).
